# Reference: patent publication EP4467974A1, “NOVEL CHEMOSENSORS AND THEIR USE IN ELECTROCHEMICAL DETECTION METHODS” (Karlsruher Institut für Technologie, priority 2023, dated 2024)
# Like-named read-outs stand apart in the source and are kept apart here.
# Experiments:
# [1] = cited from earlier work
# [2] = Binding affinity (log Ka) of guests for the macrocyclic receptor cucurbit[7]uril; details: PtC as indicator for CB7 (CB7⊃PtC inclusion complex), result in words
# [3] = binding affinity for CB7 (host-guest complex)
SMILES,"log Ka [1, 3]",also measured
NCCc1c[nH]c2ccc(O)cc12 [serotonin],4.8,–
OCCOCCOCCn1cc2[n+](n1)[Pt-2]([Cl])([Cl])[n+]1ccccc1-2 [PtC],–,binding affinity [2]: intermediate
NCCc1ccc(O)c(O)c1 [dopamine],5.0,–
CC(=O)O[C@H]1C[C@@H]2CC[C@@H]3[C@H](CC[C@@]4(C)[C@H]3C[C@H]([N+]3(C)CCCCC3)[C@@H]4OC(C)=O)[C@@]2(C)C[C@@H]1[N+]1(C)CCCCC1 [pancuronium bromide],–,log Ka [1]: 10.23
